ChEMBL document CHEMBL5303304, “EUbOPEN Chemogenomics Library - IncuCyte” (2023)
“And” between values parts separate entries of the source, which are not always exact repeats. Equal values may be shown once.

How the values were obtained:
Type in all cases: toxicity, cell-based
[1] = test system: HEK-293T; assay: Incucyte cell viability with HEK293T; details: human, 10 µM, compound concentration 10 uM
[2] = test system: Fibroblast; assay: Incucyte cell viability with human fibroblast; details: 10 µM, compound concentration 10 uM
[3] = test system: U2OS; assay: Incucyte cell viability with U2OS; details: human, 10 µM, compound concentration 10 uM
Further: unitless GR value; below 1 slowed growth and below 0 cell loss.

Structure (SMILES)	Growth Rate ([1]; 0 h, replicate number 2)	Growth Rate ([1]; 6 h, replicate number 1)	Growth Rate ([1]; 6 h, replicate number 2)	Growth Rate ([1]; 12 h, replicate number 1)	Growth Rate ([1]; 12 h, replicate number 2)	Growth Rate ([1]; 18 h, replicate number 1)	Growth Rate ([1]; 18 h, replicate number 2)	Growth Rate ([1]; 24 h, replicate number 1)	Growth Rate ([1]; 24 h, replicate number 2)	Growth Rate ([2]; 0 h, replicate number 1)	Growth Rate ([2]; 0 h, replicate number 2)	Growth Rate ([3]; 6 h, replicate number 1)	Growth Rate ([3]; 12 h, replicate number 1)	Growth Rate ([3]; 18 h, replicate number 1)	Growth Rate ([3]; 24 h, replicate number 1)	Growth Rate ([1]; 0 h, replicate number 1)	Growth Rate ([2]; 6 h, replicate number 1)	Growth Rate ([3]; 0 h, replicate number 1)	Growth Rate ([3]; 12 h, replicate number 2)	Growth Rate ([3]; 24 h, replicate number 2)	also measured
CN(C)C(=O)c1sc2nc(N3CCC(S(C)(=O)=O)CC3)cc(C(F)(F)F)c2c1N [BI-5026]	0.24	0.88 and 0.51	0.65	0.83 and 0.56	0.99	0.86 and 0.6	0.85	0.97 and 0.77	0.98	-1	-0.94	0.38 and 0.65	0.88 and 0.68	0.84	0.88 and 0.97	–	–	–	–	–	–
Cc1ccccc1Oc1cc(-n2c(=O)cc(C(F)(F)F)[nH]c2=O)c2ccccc2c1Cl [BAY-069]	-0.96	0.59	0.24	0.74	0.38	0.72	0.39	0.64	0.45	0.91	0.05	0.02	-0.7	0.63	0.81	0.78	0.84	-0.77	0.77	0.86	Growth Rate ([2]; 12 h, replicate number 1): 0.51; Growth Rate ([2]; 18 h, replicate number 1): 0.76; Growth Rate ([2]; 24 h, replicate number 1): 0.75; Growth Rate ([3]; 0 h, replicate number 2): 0.42; Growth Rate ([3]; 6 h, replicate number 2): 0.72; Growth Rate ([3]; 18 h, replicate number 2): 0.86
Cl.NC(=O)c1ccccc1Nc1nc(-c2ccc(N3CCOCC3)cc2)cc2ncccc12	-1	-0.65	-0.55	-0.4	-0.36	-0.2	-0.24	-0.11	–	–	–	0.76	0.57	0.62	0.66	–	-0.14	–	0.32	0.24	Growth Rate ([2]; 6 h, replicate number 2): -0.47; Growth Rate ([2]; 12 h, replicate number 1): 0.05; Growth Rate ([2]; 12 h, replicate number 2): -0.21; Growth Rate ([2]; 18 h, replicate number 1): 0.13; Growth Rate ([2]; 18 h, replicate number 2): -0.14; Growth Rate ([2]; 24 h, replicate number 1): 0.07; Growth Rate ([2]; 24 h, replicate number 2): -0.07; Growth Rate ([3]; 0 h, replicate number 2): 0.86; Growth Rate ([3]; 6 h, replicate number 2): 0.39; Growth Rate ([3]; 18 h, replicate number 2): 0.25
Cl.O=c1cc(C2CCNCC2)n2nc3cccc(Cl)c3c2[nH]1	-0.61	–	–	–	0.58	–	0.96	–	0.91	-0.94	-0.98	0.98	–	0.98	–	-0.29	–	0.61	1	–	–
CCC(C)(C)CC[C@H](NC(=O)N1CCOCC1)C(=O)NC1(C#N)CCN(C)CC1	-0.17	–	–	–	0.91	–	–	–	–	–	–	1	–	–	0.88	0.93	0.76	0.09	0.96	–	Growth Rate ([2]; 6 h, replicate number 2): -0.59; Growth Rate ([2]; 12 h, replicate number 2): 0.5; Growth Rate ([2]; 18 h, replicate number 2): 0.95; Growth Rate ([2]; 24 h, replicate number 2): 0.95; Growth Rate ([3]; 0 h, replicate number 2): -0.03
C=CC(=O)Nc1cccc(C(=O)Nc2ccc(Nc3cc(-c4c(-c5ccc(F)cc5)nc(SC)n4C)ccn3)cc2)c1	–	0.54	0.39	0.55	0.34	0.47	0.46	0.57	–	-0.95	0.71	–	–	–	–	–	–	–	–	0.97	–
CC(C)(O)C(=O)N1CCN(c2ccc(C(F)(F)F)c(C3=C(c4c[nH]c5ccccc45)C(=O)NC3=O)c2)CC1	–	0.81	0.29	–	0.57	0.83	0.49	0.61	0.42	–	-1	–	0.93	0.9	0.76	0.94	-0.74	-0.61	–	0.83	Growth Rate ([2]; 12 h, replicate number 1): -1; Growth Rate ([2]; 18 h, replicate number 2): 0.73; Growth Rate ([2]; 24 h, replicate number 2): 0.3; Growth Rate ([3]; 18 h, replicate number 2): 0.8
Cc1cc2c(cc(C(=O)N[C@H](CO)c3ccc(S(=O)(=O)CC(=O)O)cc3)n2C)c(Cl)c1Cl	–	0.99	–	–	–	–	–	0.99	–	–	–	0.61	–	0.92	0.95	0.87	0.15	–	0.94	1	Growth Rate ([2]; 12 h, replicate number 2): 0.77; Growth Rate ([2]; 18 h, replicate number 2): 0.68; Growth Rate ([3]; 6 h, replicate number 2): 0.7; Growth Rate ([3]; 18 h, replicate number 2): 0.79
